Assay results taken from ChEMBL document CHEMBL4619760, “Anti-inflammatory Efficacy of Combined Natural Alkaloid Berberine and S1PR Modulator Fingolimod at Low Doses in Ulcerative Colitis Preclinical Models” (J Nat Prod, 2020).
The source made the active and inactive calls. No cut-off for these calls is given here.

Columns and labels:
Mus musculus [1] = assay: Anti-colitis activity against DSS-induced C57BL/6 mouse model of chronic relapsing colitis assessed as reversal of DSS-induced colon shortening at 40 mg/kg, po administered once daily for 30 days starting from day 13 post DSS-challenge; format: functional, organism-based
Mus musculus [2] = assay: Anti-colitis activity against DSS-induced C57BL/6 mouse model of chronic relapsing colitis assessed as reduction in disease activity index at 40 mg/kg, po administered once daily for 30 days starting from day 13 post DSS-challenge and measured on day 24; format: functional, organism-based
Mus musculus [3] = assay: Anti-colitis activity against DSS-induced C57BL/6 mouse model of subchronic relapsing colitis assessed as reduction in colon swelling at 40 mg/kg, po administered once daily for 14 days starting from day 5 post DSS-challenge; format: functional, organism-based
Mus musculus [4] = assay: Anti-colitis activity against DSS-induced C57BL/6 mouse model of chronic relapsing colitis assessed as reduction in stool bleeding at 40 mg/kg, po administered once daily for 30 days starting from day 13 post DSS-challenge measured on day 38; format: functional, organism-based
Mus musculus [5] = assay: Anti-colitis activity against DSS-induced C57BL/6 mouse model of chronic relapsing colitis assessed as reduction in DSS-induced loss of colon crypt and columnar epithelium at 40 mg/kg, po administered once daily for 30 days starting from day 13 post DSS-challenge by hematoxylin and eosin staining based light microscopic analysis; format: functional, organism-based
Mus musculus [6] = assay: Antiinflammatory activity against DSS-induced C57BL/6 mouse model of subchronic relapsing colitis assessed as reduction in IL17 mRNA level at 40 mg/kg, po administered once daily for 14 days starting from day 5 post DSS-challenge by RT-qPCR analysis; format: functional, organism-based
Mus musculus [7] = assay: Anti-colitis activity against DSS-induced C57BL/6 mouse model of subchronic relapsing colitis assessed as reduction in disease activity index at 40 mg/kg, po administered once daily for 14 days starting from day 5 post DSS challenge and measured on day 19; format: functional, organism-based
Mus musculus [8] = assay: Effect on total S1PR1 expression in DSS-induced C57BL/6 mouse model of subchronic relapsing colitis at 40 mg/kg, po administered once daily for 14 days starting from day 5 post DSS-challenge by Western blot analysis; format: ADME, organism-based; conditions: in vivo, 336 h
Mus musculus [9] = assay: Anti-colitis activity against DSS-induced C57BL/6 mouse model of subchronic relapsing colitis assessed as reduction in spleen swelling at 40 mg/kg, po administered once daily for 14 days starting from day 5 post DSS-challenge; format: functional, organism-based
Mus musculus [10] = assay: Anti-colitis activity against DSS-induced C57BL/6 mouse model of chronic relapsing colitis assessed as reduction in DSS-induced multiple erosive lesions in colon at 40 mg/kg, po administered once daily for 30 days starting from day 13 post DSS-challenge by hematoxylin and eosin staining based light microscopic analysis; format: functional, organism-based
Mus musculus [11] = assay: Anti-colitis activity against DSS-induced C57BL/6 mouse model of subchronic relapsing colitis assessed as reduction in DSS-induced colon shortening at 40 mg/kg, po administered once daily for 14 days starting from day 5 post DSS-challenge; format: functional, organism-based
[12] = Toxicity in DSS-induced C57BL/6 mouse model of chronic relapsing colitis assessed as induction of abnormalities in liver at 40 mg/kg, po administered once daily for 30 days starting from day 13 post DSS-challenge by hematoxylin and eosin staining based light microscopic analysis; format: organism-based; conditions: in vivo, 720 h
Mus musculus [13] = assay: Anti-colitis activity against DSS-induced C57BL/6 mouse model of subchronic relapsing colitis assessed as effect on body weight at 40 mg/kg, po administered once daily for 14 days starting from day 5 post DSS challenge and measured after day 12 to day 18; format: functional, organism-based
Mus musculus [14] = assay: Anti-colitis activity against DSS-induced C57BL/6 mouse model of subchronic relapsing colitis assessed as reduction in stool bleeding scores at 40 mg/kg, po administered once daily for 14 days starting from day 5 post DSS challenge and measured on day 19; format: functional, organism-based
Mus musculus [15] = assay: Antiinflammatory activity against DSS-induced C57BL/6 mouse model of subchronic relapsing colitis assessed as reduction in TNFalpha mRNA level at 40 mg/kg, po administered once daily for 14 days starting from day 5 post DSS-challenge by RT-qPCR analysis; format: functional, organism-based
Mus musculus [16] = assay: Anti-colitis activity against DSS-induced C57BL/6 mouse model of chronic relapsing colitis assessed as reduction in stool bleeding at 40 mg/kg, po administered once daily for 30 days starting from day 13 post DSS-challenge measured on day 43; format: functional, organism-based
[17] = Toxicity in DSS-induced C57BL/6 mouse model of chronic relapsing colitis assessed as induction of abnormalities in brain at 40 mg/kg, po administered once daily for 30 days starting from day 13 post DSS-challenge by hematoxylin and eosin staining based light microscopic analysis; format: organism-based; conditions: in vivo, 720 h
[18] = molecular target: Signal transducer and activator of transcription 3 (Homo sapiens) (UniProt P40763); assay: Inhibition of STAT3 activation in human THP1 cells assessed as reduction in LPS-induced phosphorylated STAT3 expression at 0.5 uM cotreated with 0.5 uM berberine incubated for 1 hr followed by LPS challenge and measured after 4 to 6 hrs by Western blot analysis; format: cell-based; conditions: THP-1
Mus musculus [19] = assay: Antiinflammatory activity against DSS-induced C57BL/6 mouse model of subchronic relapsing colitis assessed as reduction in IL6 mRNA level at 40 mg/kg, po administered once daily for 14 days starting from day 5 post DSS-challenge by RT-qPCR analysis; format: functional, organism-based
Mus musculus [20] = assay: Anti-colitis activity against DSS-induced C57BL/6 mouse model of chronic relapsing colitis assessed as reduction in DSS-induced inflammatory cell infiltration at 40 mg/kg, po administered once daily for 30 days starting from day 13 post DSS-challenge by hematoxylin and eosin staining based light microscopic analysis; format: functional, organism-based
[21] = Toxicity in DSS-induced C57BL/6 mouse model of chronic relapsing colitis assessed as induction of abnormalities in kidney at 40 mg/kg, po administered once daily for 30 days starting from day 13 post DSS-challenge by hematoxylin and eosin staining based light microscopic analysis; format: organism-based; conditions: in vivo, 720 h
Mus musculus [22] = assay: Anti-colitis activity against DSS-induced C57BL/6 mouse model of chronic relapsing colitis assessed as reduction in disease activity index at 40 mg/kg, po administered once daily for 30 days starting from day 13 post DSS-challenge and measured on day 43; format: functional, organism-based
Mus musculus [23] = assay: Antiinflammatory activity against DSS-induced C57BL/6 mouse model of subchronic relapsing colitis assessed as reduction in S1PR1 mRNA level at 40 mg/kg, po administered once daily for 14 days starting from day 5 post DSS-challenge by RT-qPCR analysis; format: functional, organism-based
[24] = molecular target: Signal transducer and activator of transcription 3 (Homo sapiens) (UniProt P40763); assay: Inhibition of STAT3 activation in human THP1 cells assessed as reduction in LPS-induced phosphorylated STAT3 expression at 1 uM incubated for 1 hr followed by LPS challenge and measured after 4 to 6 hrs by Western blot analysis; format: cell-based; conditions: THP-1
[25] = Toxicity in DSS-induced C57BL/6 mouse model of chronic relapsing colitis assessed as induction of abnormalities in heart at 40 mg/kg, po administered once daily for 30 days starting from day 13 post DSS-challenge by hematoxylin and eosin staining based light microscopic analysis; format: organism-based; conditions: in vivo, 720 h
Mus musculus [26] = assay: Anti-colitis activity against DSS-induced C57BL/6 mouse model of subchronic relapsing colitis assessed as reduction in DSS-induced colon swelling at 40 mg/kg, po administered once daily for 30 days starting from day 13 post DSS-challenge; format: functional, organism-based
Mus musculus [27] = assay: Anti-colitis activity against DSS-induced C57BL/6 mouse model of chronic relapsing colitis assessed as reduction in stool consistency score at 40 mg/kg, po administered once daily for 30 days starting from day 13 post DSS-challenge measured on day 43; format: functional, organism-based
THP-1 [28] = assay: Antiinflammatory activity in human THP1 cells assessed as reduction in LPS-induced IL6 mRNA level at 1 uM incubated for 1 hr followed by LPS challenge and measured after 4 to 6 hrs by q-PCR method; format: functional, cell-based
THP-1 [29] = assay: Antiinflammatory activity in human THP1 cells assessed as reduction in LPS-induced TNFalpha mRNA level at 1 uM incubated for 1 hr followed by LPS challenge and measured after 4 to 6 hrs by q-PCR method; format: functional, cell-based
[30] = Toxicity in DSS-induced C57BL/6 mouse model of chronic relapsing colitis assessed as induction of abnormalities in lung at 40 mg/kg, po administered once daily for 30 days starting from day 13 post DSS-challenge by hematoxylin and eosin staining based light microscopic analysis; format: organism-based; conditions: in vivo, 720 h
Mus musculus [31] = assay: Effect on total STAT3 expression in DSS-induced C57BL/6 mouse model of subchronic relapsing colitis at 40 mg/kg, po administered once daily for 14 days starting from day 5 post DSS-challenge by Western blot analysis; format: ADME, organism-based; conditions: in vivo, 336 h
Mus musculus [32] = assay: Anti-colitis activity against DSS-induced C57BL/6 mouse model of chronic relapsing colitis assessed as reduction in stool consistency score at 40 mg/kg, po administered once daily for 30 days starting from day 13 post DSS-challenge measured on day 24; format: functional, organism-based
Mus musculus [33] = assay: Anti-colitis activity against DSS-induced C57BL/6 mouse model of subchronic relapsing colitis assessed as reduction in stool consistency scores at 40 mg/kg, po administered once daily for 14 days starting from day 5 post DSS challenge and measured on day 19; format: functional, organism-based
Mus musculus [34] = assay: Anti-colitis activity against DSS-induced C57BL/6 mouse model of subchronic relapsing colitis assessed as reduction in phosphorylated STAT3 level at 40 mg/kg, po administered once daily for 14 days starting from day 5 post DSS-challenge by Western blot analysis; format: functional, organism-based

Signal transducer and activator of transcription 3 (Homo sapiens), sequence (P40763 whole entry): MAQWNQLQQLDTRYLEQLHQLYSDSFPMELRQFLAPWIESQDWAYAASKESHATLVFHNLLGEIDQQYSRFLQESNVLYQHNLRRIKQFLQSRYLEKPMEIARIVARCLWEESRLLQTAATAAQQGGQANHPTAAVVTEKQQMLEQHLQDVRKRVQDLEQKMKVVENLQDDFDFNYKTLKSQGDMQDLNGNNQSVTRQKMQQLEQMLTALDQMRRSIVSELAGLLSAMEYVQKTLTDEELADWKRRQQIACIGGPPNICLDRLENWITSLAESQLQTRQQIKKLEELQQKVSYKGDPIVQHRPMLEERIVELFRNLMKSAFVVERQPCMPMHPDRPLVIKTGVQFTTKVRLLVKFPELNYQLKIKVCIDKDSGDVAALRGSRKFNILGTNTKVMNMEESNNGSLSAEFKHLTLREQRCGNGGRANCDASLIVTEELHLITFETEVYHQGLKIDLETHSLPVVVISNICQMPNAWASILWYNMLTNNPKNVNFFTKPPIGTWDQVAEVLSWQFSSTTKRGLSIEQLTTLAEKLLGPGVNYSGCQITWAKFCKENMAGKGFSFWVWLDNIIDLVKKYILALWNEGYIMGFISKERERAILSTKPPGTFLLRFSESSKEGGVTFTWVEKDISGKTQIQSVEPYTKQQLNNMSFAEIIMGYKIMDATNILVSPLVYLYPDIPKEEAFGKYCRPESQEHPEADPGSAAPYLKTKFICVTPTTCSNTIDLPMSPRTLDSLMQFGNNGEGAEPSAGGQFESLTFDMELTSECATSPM

SMILES: COc1ccc2cc3[n+](cc2c1OC)CCc1cc2c(cc1-3)OCO2.[Cl-] [BERBERINE CHLORIDE]
- Activity (Mus musculus [1]): Active
- Activity (Mus musculus [2]): Active
- Activity (Mus musculus [3]): inactive
- Activity (Mus musculus [4]): Active
- Activity (Mus musculus [5]): Active
- Activity (Mus musculus [6]): Active
- Activity (Mus musculus [7]): Active
- Activity (Mus musculus [8]): Non-Toxic
- Activity (Mus musculus [9]): inactive
- Activity (Mus musculus [10]): Active
- Activity (Mus musculus [11]): Active
- Activity [12]: Non-Toxic
- Activity (Mus musculus [13]): inactive
- Activity (Mus musculus [14]): Active
- Activity (Mus musculus [15]): Active
- Activity (Mus musculus [16]): Active
- Activity [17]: Non-Toxic
- inhibition [18]: Active
- Activity (Mus musculus [19]): Active
- Activity (Mus musculus [20]): Active
- Activity [21]: Non-Toxic
- Activity (Mus musculus [22]): Active
- Activity (Mus musculus [23]): inactive
- inhibition [24]: Active
- Activity [25]: Non-Toxic
- Activity (Mus musculus [26]): inactive
- Activity (Mus musculus [27]): Active
- Activity (THP-1 [28]): Active
- Activity (THP-1 [29]): Active
- Activity [30]: Non-Toxic
- Activity (Mus musculus [31]): Non-Toxic
- Activity (Mus musculus [32]): Active
- Activity (Mus musculus [33]): Active
- Activity (Mus musculus [34]): Active
